Source: patent publication US9173875B2, “Treatment for nicotine-induced lung disease using peroxisome proliferator-activated receptor gamma agonists” (Los Angeles Biomedical Research Institute at Harbor-UCLA …, priority 2006, dated 2015)

Key:
[1] = system: WI38 cells; assay: Reversal experiment, immunofluorescence double staining (ADRP or lipid droplets and αSMA) in WI38 cells; format: cell-based, human; conditions: RGZ 1×10^−5 M, DBcAMP 1×10^−5 M, 7 days after nicotine
Procedure: Cells were grown in minimum essential medium (MEM) +10% fetal bovine serum at 37° C. in six-well plates, two well slides, and 60-mm and 100-mm culture dishes, as needed. […] Subsequently, the cells were treated with rosiglitazone (RGZ) (1×10^−5 M) (a PPARγ agonist), PTHrP (5×10^−7 M), or DBcAMP (1×10^−5 M) for 7 days, and the expression of PTHrP receptor, PPARγ, ADRP, calponin, and cSMA was determined by Western analysis and immunohistochemistry. Simultaneously, fibroblast function was characterized by measuring their capacity to take up triglycerides. Some experiments were performed in the presence of a specific PPARγ antagonist, GW9662. Medium containing fresh chemicals was added daily, and at the end of the experimental period the cells were processed as needed.
The lipogenic and myogenic status of cultured WI38 cells was assessed by simultaneous staining for either lipid droplets or ADRP and αSMA. Lipids were detected by using either oil red 0 staining or ADRP expression (polyclonal anti-ADRP 1:500), and αSMA expression was assessed by using anti-αSMA (1:1000, mouse monoclonal IgG2a, Sigma, catalog No. A2547) primary antibody. […] At the end of the experimental period, slides were fixed in freshly prepared 4% paraformaldehyde. […] Slides were rinsed three times for 5 min and then mounted and visualized under a fluorescence microscope.

[2] = system: WI38 cells; assay: Reversal of nicotine-induced LIF-to-MYF transdifferentiation in WI38 cells, Western analysis; conditions: for reversal of nicotine-induced decrease in PTHrP receptor expression: 7 days agonist after 7 days nicotine 10^−9 M (Example 3); for reversal of nicotine-induced decrease in PPARγ expression / reversal of nicotine-induced increase in αSMA expression: 7 days agonist after 7 days nicotine (Example 3); for reversal of nicotine-induced changes in expression of PTHrP receptor, PPARγ, ADRP, αSMA and calponin: RGZ 1×10^−5 M, PTHrP 5×10^−7 M, DBcAMP 1×10^−5 M for 7 days after 7 days nicotine
Procedure: The human embryonic cell line WI38 was obtained from the American Type Culture Collection (Rockville, Md.). Cells were grown in minimum essential medium (MEM) +10% fetal bovine serum at 37° C. in six-well plates, two well slides, and 60-mm and 100-mm culture dishes, as needed. […] Subsequently, the cells were treated with rosiglitazone (RGZ) (1×10^−5 M) (a PPARγ agonist), PTHrP (5×10^−7 M), or DBcAMP (1×10^−5 M) for 7 days, and the expression of PTHrP receptor, PPARγ, ADRP, calponin, and cSMA was determined by Western analysis and immunohistochemistry. Simultaneously, fibroblast function was characterized by measuring their capacity to take up triglycerides. Some experiments were performed in the presence of a specific PPARγ antagonist, GW9662. Medium containing fresh chemicals was added daily, and at the end of the experimental period the cells were processed as needed.
For Western blotting, cells were lysed using an extraction buffer [10 mM tris (hydroxymethyl) aminomethane (Tris, pH 7.5), 0.25 M sucrose, 1 mM EDTA, 5 mM benzamidine, 2 mM phenylmethylsulfonyl fluoride, and 10 (j.tg/ml each of pepstatin A, aprotinin, and leupeptin], and centrifuged at 140 g for 10 min (4° C.). Equal amounts of the protein (25 μg) from the supernatant were dissolved in electrophoresis sample buffer and were subjected to sodium dodecyl sulfate-polyacrylamide (4%-12% gradient) gel electrophoresis (SDS-PAGE) followed by electrophoretic transfer to a nitrocellulose memane. The nonspecific binding of antibody was blocked by washing with Tris-buffered saline (TBS) containing 0.1% Tween 20 (TBST) and 5% milk for 1 h. The blot was then subjected to two brief washes with TBST plus 0.5% Tween 20, incubated in TBST plus 0.1% Tween 20 and the specific primary antibodies (PPARγ 1:2000, Alexis Biochemicals, San Diego, Calif.; cSMA 1:50,000, Sigma, St. Louis, Mo.: ADRP 1:3000) overnight at 4° C. Blots were then washed in TBST plus 0.1% Tween 20 and then incubated for 1 h in secondary antibody, washed, and developed with a chemiluminescent substrate [enhanced chemiluminescence (ECL); Amersham, Arlington Heights, Ill.] following the manufacturer's protocol. The densities of the specific protein bands were quantified using a scanning densitometer (Eagle Eye II still video system, Stratagene, La Jolla, Calif.).

[3] = system: WI38 cells; assay: Western blot of lipogenic and myogenic marker proteins in WI38 cells (nicotine with or without lipogenic pathway agonists); format: cell-based, human; conditions: PTHrP 5×10^−7 M, DBcAMP 1×10^−4 M, RGZ 1×10^−5 M
Procedure: (§1) The human embryonic cell line WI38 was obtained from American Type Culture Collection (Rockville, Md.). Cells were grown in MEM plus 10% FBS at 37° C. in six-well plates, four-well slides, and 60- and 100-mm culture dishes as needed.
Western blotting was performed with modifications of methods described previously (Ayad and Wong (1998) Crit. Care Med 26: 1277-1282). […] Equal amounts of the protein (25 μg) from the supernatant were dissolved in electrophoresis sample buffer and were subjected to SDS-PAGE (4-12% gradient) followed by electrophoretic transfer to a nitrocellulose membrane. Nonspecific binding of antibody was blocked by washing with Tris-buffered saline (TBS) containing 5% milk for 1 h. The blot was then subjected to two brief washes with TBS plus 0.5% Tween 20, incubated in TBS plus 0.1% Tween 20 and the specific primary antibodies (PPAR 1:2,000, Alexis Biochemicals, San Diego, Calif.; -SMA 1:50,000, Sigma; ADRP 1:3,000, a kind gift from Dr. Constantine Londos, National Institute of Diabetes and Digestive and Kidney Diseases) overnight at 4° C. Blots were then washed in TBS plus 0.1% Tween 20 and then incubated for 1 h in secondary antibody, washed, and developed with a chemiluminescent substrate (ECL; Amersham, Arlington Heights, Ill.) following the manufacturer's protocol.

[4] = system: WI38 cells; assay: Triglyceride uptake assay ([3H]triolein) in WI38 cells; format: cell-based, human; conditions: concomitant treatment; RGZ 1×10^−5 M, PTHrP 5×10^−7 M, DBcAMP 1×10^−4 M; nicotine 1×10^−9 M, 7 days
Procedure: as §1
The method used to quantitate triglyceride uptake by fetal rat lung fibroblasts has been described previously (Torday et al. (1995) Biochim Biophys Acta 1254: 198-206). Briefly, culture medium was replaced with DMEM containing 20% adult rat serum mixed with [3H]triolein (5 μCi/ml). The cells were incubated at 37° C. in 5% CO2+balance air for 4 h. At the termination of the incubation, the medium was decanted, the cells were rinsed twice with 1 ml of ice-cold MEM, and the cells were removed from the culture plate after a 5- to 10-min incubation with 2 ml of a 0.05% trypsin solution. An aliquot of the cell suspension was taken for protein assay (Bradford (1976) Anal Biochem 72: 248-254), and the remaining cell suspension was extracted for neutral lipid content.

[5] = system: WI38 cells; assay: Reversal experiment, triglyceride (triolein) uptake by WI38 cells; format: cell-based, human; conditions: RGZ 10^−5 M, PTHrP 5×10^−7 M, DBcAMP 1×10^−5 M for 7 days after nicotine

Compound	reversal of nicotine-induced decreases in ADRP and lipid droplet staining and increase in αSMA staining [1]	reversal of nicotine-induced decrease in PTHrP receptor expression [2]	reversal of nicotine-induced decrease in PPARγ expression [2]	reversal of nicotine-induced increase in αSMA expression [2]	reversal of nicotine-induced changes in expression of PTHrP receptor, PPARγ, ADRP, αSMA and calponin [2]	prevention of nicotine-induced decreases in PTHrP receptor and PPAR and increase in α-SMA protein expression [3]	prevention of nicotine-induced decrease in triglyceride uptake [4]	block of nicotine-induced decrease in triolein uptake [5]
CCCC(=O)Nc1ncnc2c1ncn2[C@@H]1O[C@@H]2COP(=O)(O)O[C@H]2[C@H]1OC(=O)CCC [DBcAMP, dibutyryl cAMP]	reversed	reversed	did not reach statistical significance	reversed	almost completely reversed	completely prevented	effectively prevented	at least partially blocked
PTHrP-(1-34)		reversed	reversed	reversed	almost completely reversed	completely prevented	effectively prevented	at least partially blocked
